Experimental data as given in patent US20030055065A1, “Tricyclic amide and urea compounds useful for inhibition of G-protein function and for treatment of proliferative diseases” (priority 1993, published 2003).
Where “and” joins values, the source holds several entries; their conditions need not be identical. Equal entries are not always repeated. Where two headings read alike, the source gives them in different places.

Key:
[1] = test system: Normal human HEPM fibroblasts; assay: Cell Mat Assay: density of mat cells (mIC50); type: cell-based; settings: Homo sapiens, Fibroblast
Method in brief: (§1)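 Serial compound dilutions added 24 h after planting T24-BAG4 cells onto a mat of normal cells, then 14 d colony growth; monolayers glutaraldehyde-fixed and tumor cells X-Gal stained. tIC50 and mIC50 from microscope counts of colonies, cells per colony and mat cell density.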

[2] = test system: A431 (human epidermal carcinoma); assay: In vivo anti-tumor study, A431; set-up: species or system athymic nu/nu female mice; concentration or dose not given beside the values; settings: s.c. tumor A431, BID
[3] = test system: SW620 (human colon adenocarcinoma [lymph node metastasis]); assay: In vivo anti-tumor study, SW620; set-up: species or system athymic nu/nu female mice; percent inhibition of tumor growth relative to vehicle controls: concentration or dose not given beside the values; settings: for percent inhibition of tumor growth relative to vehicle controls: s.c. tumor SW-620, BID; for inhibition in vivo at 100 mg/kg: Mus musculus, SW620 tumor, 100 MPK, 10/wk
[4] = test system: T24-BAG4 human bladder carcinoma cells expressing an activated H-ras gene; assay: Cell Mat Assay: tumor cell colony inhibition (tIC50); type: cell-based; settings: Homo sapiens, inhibition of tumor cell growth
Method in brief: as §1

[5] = test system: M27 (mouse Lewis lung carcinoma); assay: In vivo anti-tumor study, M27; set-up: species or system athymic nu/nu female mice; settings: po; for percent inhibition of tumor growth relative to vehicle controls: s.c. tumor M27, BID, 1-7, ×4; for Average % Tumor Inhibition: M27 tumor, 100 MPK, x4
Text: In vivo Anti-tumor Studies

[6] = test system: Ras-CVLS processing in COS monkey kidney cells; assay: COS cell assay: Ras-CVLS processing (Western blot); type: cell-based; settings: Primates, COS
Method in brief: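 COS cells electroporated with Ras-CVLS (farnesyl transferase substrate) cDNA, with drug-containing fresh medium added at 24 h and cells examined at 48 h. TCA-precipitated cellular protein was resolved by SDS gel and immunoblotted with anti-p21 Ras monoclonal and HRP anti-rat IgG to monitor Ras processing.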

[7] = target: T1, geranylgeranyl protein transferase (GGPT) I (Rattus norvegicus, UniProt P53610+Q04631); assay: Inhibition of geranylgeranyl protein transferase I (Ras-CVLL as acceptor); type: biochemical; settings: for selective for FPT inhibition (over GGPT): FPT versus GGPT; for IC50: enzyme inhibition
T1 construct: were partially purified from rat brain by ammonium sulfate fractionation followed by Q-Sepharose
T1 sequence (P53610 whole entry, one chain of several): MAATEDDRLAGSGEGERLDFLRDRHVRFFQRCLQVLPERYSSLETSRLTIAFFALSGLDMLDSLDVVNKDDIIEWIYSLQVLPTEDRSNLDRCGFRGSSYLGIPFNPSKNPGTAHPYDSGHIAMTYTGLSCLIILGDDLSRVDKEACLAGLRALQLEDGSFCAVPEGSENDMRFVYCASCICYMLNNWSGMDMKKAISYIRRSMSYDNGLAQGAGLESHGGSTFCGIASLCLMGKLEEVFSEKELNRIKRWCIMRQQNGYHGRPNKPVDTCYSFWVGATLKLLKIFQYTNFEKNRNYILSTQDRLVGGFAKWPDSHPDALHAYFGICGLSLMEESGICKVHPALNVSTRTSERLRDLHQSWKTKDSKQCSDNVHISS
Method in brief: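 Rat brain GGPT I, partially purified by ammonium sulfate fractionation and anion exchange, was assayed with [3H]geranylgeranyl pyrophosphate as isoprenoid donor. The acceptor was E. coli-expressed His6-tagged val12-Ha-Ras ending in CVLL. The protocol otherwise matched the farnesyl protein transferase assay.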

[8] = target: T2, farnesyl protein transferase (FPT), partially purified from rat brain (Rattus norvegicus, UniProt Q02293+Q04631); assay: Inhibition of farnesyl protein transferase (transfer of [3H]farnesyl to Ras-CVLS); type: biochemical
T2 construct: were partially purified from rat brain by ammonium sulfate fractionation followed by Q-Sepharose
T2 sequence (Q02293 whole entry, one chain of several): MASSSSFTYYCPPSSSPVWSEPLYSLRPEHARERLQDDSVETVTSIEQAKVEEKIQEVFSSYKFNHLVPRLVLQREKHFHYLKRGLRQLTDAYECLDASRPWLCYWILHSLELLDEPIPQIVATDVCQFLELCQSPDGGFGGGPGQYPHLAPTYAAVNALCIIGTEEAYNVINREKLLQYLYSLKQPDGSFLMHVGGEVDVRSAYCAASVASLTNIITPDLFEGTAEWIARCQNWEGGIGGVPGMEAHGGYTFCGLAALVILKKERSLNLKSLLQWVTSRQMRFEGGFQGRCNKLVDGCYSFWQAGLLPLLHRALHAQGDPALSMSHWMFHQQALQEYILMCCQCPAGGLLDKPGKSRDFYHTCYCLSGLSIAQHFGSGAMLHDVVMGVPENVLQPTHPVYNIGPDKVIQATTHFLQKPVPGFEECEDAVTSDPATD
Method in brief: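 Partially purified farnesyl protein transferase with His6-tagged val12-Ha-Ras-CVLS substrate and [3H]farnesyl pyrophosphate, 30 min at room temperature. Stopped with SDS/TCA, precipitated Ras collected on GF/C filters; percent inhibition relative to DMSO vehicle control.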

[9] = test system: C-f-1 (mouse fibroblast transformed with c-fos oncogene); assay: In vivo anti-tumor study, C-f-1; set-up: species or system athymic nu/nu female mice; concentration or dose not given beside the values; settings: s.c. tumor C-f-1, BID
[10] = test system: COS monkey kidney cells expressing val12-Ha-Ras-CVLS; assay: COS cell assay: disordered cell growth / morphological changes induced by Ras-CVLS; type: cell-based
Text: (§2) 2. Cell-Based Assay: Transient expression of val^12-Ha-Ras-CVLS and val^12-Ha-Ras-CVLL in COS monkey kidney cells: Effect of farnesyl protein transferase inhibitors on Ras processing and on disordered cell growth induced by transforming Ras.
(§3) COS monkey kidney cells were transfected by electroporation with the plasmid pSV-SPORT (Gibco/BRL) containing a cDNA insert encoding either Ras-CVLS or Ras-CVLL, leading to transient overexpression of a Ras substrate for either farnesyl protein transferase or geranylgeranyl protein transferase I, respectively (see above).
(§4) Following electroporation, cells were plated into 6-well tissue culture dishes containing 1.5 ml of Dulbecco's-modified Eagle's media (GIBCO, Inc.) supplemented with 10% fetal calf serum and the appropriate farnesyl protein transferase inhibitors. After 24 hours, media was removed and fresh media containing the appropriate drugs was re-added.
(§5) 48 hours after electroporation cells were examined under the microscope to monitor disordered cell growth induced by transforming Ras. Cells expressing transforming Ras become more rounded and refractile and overgrow the monolayer, reminiscent of the transformed phenotype. […]

[11] = test system: Ras-CVLL processing in COS monkey kidney cells; assay: COS cell assay: Ras-CVLL processing (geranylgeranylation); type: cell-based; settings: concentrations up to 20 μg/mL
Text: as §2
as §3, with “above). […]” for “above).”
Membranes were blocked by incubation overnight at 4° C. in PBS containing 2.5% dried milk and 0.5% Tween-20 and then incubated with a Ras-specific monoclonal antibody, Y13-259 (Furth, M. E., et al., (1982), Monoclonal antibodies to the p21 products of the transforming gene of Harvey murine sarcome virus and of the cellular ras gene family, J. Virol. 43: 294-304), in PBS containing 1% fetal calf serum for one hour at room temperature. […] The presence of processed and unprocessed Ras-CVLS or Ras-CVLL was detected using a colorimetric peroxidase reagent (4-chloro-1-naphthol) as described by the manufacturer (Bio-Rad).

[12] = test system: COS monkey kidney cells expressing val12-Ha-Ras-CVLL; assay: COS cell assay: disordered cell growth / morphological changes induced by Ras-CVLL; type: cell-based; settings: 20 μg/mL
Text: as §2, §3, §4, §5

[13] = COS cells, read-out: Inhibition of Ras Processing IC50
[14] = Ras-CVLS farnesylation, partially purified rat brain FPT, read-out: FPT IC50
[15] = enzyme inhibition, read-out: FPT IC50

| Structure (SMILES) | IC50 [1] [nM] | percent inhibition of tumor growth relative to vehicle controls ([2]; ip, 1-5, ×4) [%] | percent inhibition of tumor growth relative to vehicle controls ([3]; ip, 1-5, ×4) [%] | percent inhibition of tumor growth relative to vehicle controls ([3]; po, 1-5, ×2) [%] | IC50 [4] [nM] | percent inhibition of tumor growth relative to vehicle controls [5] [%] | IC50 [6, 13] [nM] | selective for FPT inhibition (over GGPT) [7] | IC50 [7] [nM] | IC50 [8, 14] [nM] | IC50 [8, 15] [nM] | percent inhibition of tumor growth relative to vehicle controls ([9]; ip, 1-5, ×2) [%] | percent inhibition of tumor growth relative to vehicle controls ([9]; po, 1-5, ×4) [%] | percent inhibition of tumor growth relative to vehicle controls ([2]; po, 1-6, ×4) [%] | percent inhibition of tumor growth relative to vehicle controls ([3]; po, 1-5, ×4) [%] | percent inhibition of tumor growth relative to vehicle controls ([2]; po, 1-5, ×4) | inhibition in vivo at 100 mg/kg ([3]; SW-620, po, po, x2) [%] | inhibition in vivo at 100 mg/kg ([3]; SW-620, po, po, x4) [%] | Average % Tumor Inhibition ([5]; 14/wk) [%] | other results |
| --- | --- | --- | --- | --- | --- | --- | --- | --- | --- | --- | --- | --- | --- | --- | --- | --- | --- | --- | --- | --- |
| O=C(CN1C(=O)c2ccccc2C1=O)N1CCC(=C2c3ccc(Cl)cc3CCc3cccnc32)CC1 [Example 3] | > 50000 | 0 | 27 | 15.8 | > 50000 | 27.3 | > 10000 | at least 59 fold | > 39000 | 660 | 660 | 8 | 0 |  |  |  |  |  |  | inhibition at 39 µM ([7]; at 39 μM, Ras-CVLL as isoprenoid acceptor): 3% |
| O=C(C(c1ccccc1)c1ccccc1)N1CCN(C2c3ccc(Cl)cc3CCc3cccnc32)CC1 (centres unmarked) [Example 79] | > 50000 |  |  |  | 12500 |  | 5100 |  |  | 2500 | 2500 |  | 25 | 0 | 26.7 |  |  |  |  |  |
| O=C(c1ccc(O)cc1)N1CCC(=C2c3ccc(Cl)cc3CCc3cccnc32)CC1 [Example 7] | 100000 | 0 | 19.6 | 48.6 | 50000 | 58.2 |  |  | > 45000 | 2300 | 2300 | 39.7 | 39.3 |  | 0 | 29.1% | 13 | 0 | 40 |  |
| O=C(Cc1ccncc1)N1CCC(=C2c3ccc(Cl)cc3CCc3cccnc32)CC1 [Example 1, 1-(4-pyridylacetyl)-4-(8-chloro-5,6-dihydro-11H-benzo[5,6]cyclohepta[1,2-b]pyridin-11-ylidene)piperidine] |  |  |  |  | 3100 |  | 1000 |  |  |  |  |  |  |  |  |  |  |  |  | morphological changes induced by Ras-CVLS ([10]; at 0.2 or 0.5 μg/mL): little effect; morphological changes induced by Ras-CVLS ([10]; concentration range of 2 to 20 μg/mL): inhibited the morphological changes induced by Ras-CVLS in a dose-dependent manner; IC50 ([6]; Ras-transfected COS cells, read-out: Ras-CVLS processing IC50): 1 µM and 0.44 µg/mL; geranylgeranylation of Ras-CVLL [11]: did not block; morphological changes induced by Ras-CVLL [12]: did not prevent the morphological changes |
| O=C(Cc1ccncc1)N1CCN(C2c3ccc(Cl)cc3CCc3cccnc32)CC1 (centres unmarked) [Example 75] | > 50000 |  |  |  | 2500 |  |  |  |  |  |  |  | 20 | 34.5 | 43.4 |  |  |  |  | Average % Tumor Inhibition ([5]; 10/wk): 0%; IC50 ([8]; FPT IC50, Ras-CVLS farnesylation, partially purified rat brain FPT): 360 nM and 160 nM |
| O=C(Cc1cccnc1)N1CCC(=C2c3ccc(Cl)cc3CCc3cccnc32)CC1 [Example 2, 8-chloro-11-[1-(1-(3-pyridyl)-methylcarbonyl)-4-piperidylidene]-6,11-dihydro-5H-benzo[5,6]cyclohepta[1,2-b]-pyridine] | > 50000 |  | 0 | 46.1 | 25000 | 61.2 | 3700 | at least 98 fold | > 46000 | 470 | 470 | 8 | 9.6 |  | 33.5 | 45.6% and 36.5% | 0 | 1 | 45 | inhibition in vivo at 100 mg/kg ([3]; SW-620, ip, ip, x2): 0%; inhibition at 46 µM ([7]; at 46 μM, Ras-CVLL as isoprenoid acceptor): 25% |
